Assay results from patent publication US4185152A, “Thiazolidinyl alkoxy pyridines” (Warner-Lambert Company, priority 1971, dated 1980).
Read-outs that look alike come from different tables or passages of the source.

Tests used:
[1] = tested on: mice exposed to X-ray or gamma ray radiation; experiment: antiradiation test, 30-day survival of irradiated mice; assay type: in vivo; details: Mus musculus, light or radiation study, ip, i.p., 950 R cobalt-60 gamma or 825 R X-ray, read-out: Survival (30 days)
Source text: The compounds of the invention are new chemical compounds that are useful as pharmacological agents, especially as antiradiation agents that are active in protecting against the effects of exposure to X-ray or gamma ray radiation.
In this table, the activity of each compound is expressed in terms of the percentage of animals that survived (30 days) the exposure to radiation at the given dose. The dose given is generally the lowest dose at which a high rate of survival was obtained. Administration was by the intraperitoneal route. Except where indicated otherwise, each compound was administered as the monohydrochloride salt to a test group consisting of 15 mice. The radiation dose was either 950 Roentgens supplied by a cobalt-60 gamma ray source or 825 Roentgens from an X-ray source.

[2] = approximate LD50 (acute toxicity, antiradiation activity table); details: mouse, in vivo, ip, mice, intraperitoneal
[3] = 0.25 h, pre-irradiation time 15 min., 15 mice, monohydrochloride
[4] = 0.5 h, pre-irradiation time 30 min., 15 mice, monohydrochloride

SMILES: Brc1ccc(OCCCN2CCSC2)nc1.Cl [Br 3, 5-bromo-2-[3-(3-thiazolidinyl)propoxy]pyridine, monohydrochloride]
- responders at 100 mg/kg [1, 3]: 33%
- LD50 ([2]; monohydrochloride salt): ~250 mg/kg

SMILES: Brc1ccc(OCCCCCN2CCSC2)nc1.Cl [Br 5, 5-Bromo-2-{[5-(3-thiazolidinyl)pentyl]oxy}-pyridine, monohydrochloride]
- responders at 90 mg/kg ([1]; 0.5 h, dose 90 mg./kg., pre-irradiation time 30 min., six mice, monohydrochloride): 83%
- responders at 180 mg/kg ([1]; 0.5 h, dose 180 mg./kg., pre-irradiation time 30 min., six mice, monohydrochloride): 100%
- LD50 ([2]; monohydrochloride salt): ~240 mg/kg

SMILES: Brc1ccc(OCCCCCCCCN2CCSC2)nc1.Cl [Br 8, 5-Bromo-2-{[8-(3-thiazolidinyl)octyl]oxy}-pyridine, monohydrochloride]
- responders at 50 mg/kg ([1]; 0.5 h, dose 50 mg./kg., pre-irradiation time 30 min., 15 mice, monohydrochloride): 20%
- LD50 ([2]; monohydrochloride salt): ~230 mg/kg

SMILES: Cc1ccc(OCCCCCN2CCSC2)nc1 [CH3 5, 5-methyl-2-{[5-(3-thiazolidinyl)pentyl]-oxy}pyridine]
- responders at 70 mg/kg ([1]; 0.5 h, dose 70 mg./kg., pre-irradiation time 30 min., 15 mice, dihydrochloride): 33%
- LD50 ([2]; dihydrochloride salt): ~190 mg/kg

SMILES: Cl.Cl.Clc1ccc(OCCCCCN2CCSC2)nc1 [Cl 5, 5-Chloro-2-{[5-(3-thiazolidinyl)pentyl]-oxy}pyridine, dihydrochloride]
- responders at 80 mg/kg ([1]; 0.25 h, pre-irradiation time 15 min., 15 mice, dihydrochloride): 87%
- responders at 80 mg/kg ([1]; 0.5 h, pre-irradiation time 30 min., 15 mice, dihydrochloride): 93%
- LD50 ([2]; dihydrochloride salt): ~160 mg/kg

SMILES: Cl.Ic1ccc(OCCCCN2CCSC2)nc1 [I 4, 5-iodo-2-[4-(3-thiazolidinyl)-butoxy]pyridine, monohydrochloride]
- responders at 100 mg/kg [1, 3]: 20%
- LD50 ([2]; monohydrochloride salt): > 300 mg/kg

SMILES: Cl.Ic1ccc(OCCCCCN2CCSC2)nc1 [I 5, 5-Iodo-2-{[5-(3-thiazolidinyl)pentyl]oxy}-pyridine, monohydrochloride]
- responders at 100 mg/kg [1, 4]: 93%
- LD50 ([2]; monohydrochloride salt): ~230 mg/kg

SMILES: Cl.Ic1ccc(OCCCCCCCN2CCSC2)nc1 [I 7, 5-Iodo-2-{[7-(3-thiazolidinyl)heptyl]oxy}-pyridine, monohydrochloride]
- responders at 100 mg/kg [1, 4]: 47%
- LD50 ([2]; monohydrochloride salt): ~200 mg/kg
